Read-outs that look alike come from different tables or passages of the source.
How the values were obtained:
[1] = POV reduction in sunflower oil; conditions: 0.5081 g in 15 mL sunflower oil
[2] = POV reduction in consumer product spiked with oxidized limonene: antiperspirant stick; conditions: 1% (w/w)
[3] = POV reduction in non-citrus essential oil: basil oil; conditions: 4 days treatment, 0.2 mL in 10 mL
Experimental: (§1) For each oil, 20 mL was placed in separate 30 mL glass vials, and subjected to the following procedure for 8 days on a daily basis; the vial was opened to refresh the atmospheric headspace, then reclosed and shaken to maximize the gas/liquid contact, then stored on the benchtop under ambient laboratory temperature and lighting conditions. This procedure was designed to mimic the typical handling of a container in a production setting, in which the oil gets consumed in many small aliquots, rather than an entire container at a time.
(§2) On Day 4, each oil sample was split in half, so two 10 mL aliquots were placed in separate vials to create a “Treated” and an “Untreated” sample. To the Treated sample of each oil type, AKG-DiTMEEA was added as per the Dosing chart below. […] The daily opening, shaking, and standing procedure continued for another four days until the POV measurements were taken. It can be seen that 8 days of such handling of the untreated oils caused significant increases in POV measurement.

[4] = POV reduction in non-citrus essential oil: coriander oil; conditions: 4 days treatment, 0.2 mL in 10 mL
Experimental: as §1, §2

[5] = POV reduction in non-citrus essential oil: patchouli oil; conditions: 4 days treatment, 0.2 mL in 10 mL
Experimental: as §1, §2

[6] = POV reduction in non-citrus essential oil: star anise oil; conditions: 4 days treatment, 0.2 mL in 10 mL
Experimental: as §1, §2

[7] = POV reduction in non-citrus essential oil: cinnamon leaf oil; conditions: 4 days treatment, 0.2 mL in 10 mL
Experimental: as §1, §2

[8] = POV reduction in non-citrus essential oil: cedarwood oil Virginian; conditions: 4 days treatment, 0.2 mL in 10 mL
Experimental: as §1, §2

[9] = POV reduction in non-citrus essential oil: pine oil Siberian; conditions: 4 days
Experimental: as §1, §2
For this reason, two levels of AKG-DiTMEEA treatment were tried, ×2 and ×4 the treatment used on the other oils. […] A different, lower molecular weight 2-oxoacid salt may be a better choice.

[10] = POV reduction in non-citrus essential oil: lavender oil; conditions: 4 days treatment, 0.2 mL in 10 mL
Experimental: as §1, §2

[11] = POV reduction in non-citrus essential oil: petitgrain oil; conditions: 4 days treatment, 0.2 mL in 10 mL
Experimental: as §1, §2

[12] = POV reduction in model citrus perfume (mixed citrus oil in 90/10 v/v ethanol/water)
[13] = leading to evolution of carbon dioxide and pyruvic acid; Krebs 1942; cited from earlier work
pH of aqueous solution = format: physicochemical; conditions: solution of 0.114 g in 10 mL of water
[14] = 8 days* (second line, asterisk not explained)
[15] = Siberian (x2 Treatment Level), 0.2 mL in 5 mL
[16] = Siberian (x4 Treatment Level), 0.4 mL in 5 mL

With `COCCOCCN(CCOCCOC)CCOCCOC.COCCOCCN(CCOCCOC)CCOCCOC.O=C(O)CCC(=O)C(=O)O` [AKG-diTMEEA] the “POV of treated oil” value ([1]; 65 minutes since addition) was 11.72 mmol/L, the “% Reduction in POV” value ([1]; 65 minutes) was 29.2% and the “% Reduction in POV” value ([1]; 180 mins (3 hrs)) was 44.5%. The “POV of treated oil” value ([1]; 180 mins (3 hrs)) was 9.19 mmol/L, the “% Reduction in POV” value ([1]; 1320 mins (22 hrs)) was 65.0% and the “POV of treated oil” value ([1]; 1320 mins (22 hrs)) was 5.80 mmol/L. For the same compound, the “% Reduction in POV” value ([1]; 23 days) was 88.7%, the “POV of treated oil” value ([1]; 23 days) was 2.10 mmol/L and the “POV of treated APS” value ([2]; 150 minutes since addition, spiked with oxidized limonene) was 3.7 mmol/L. The “% Reduction in POV” value ([2]; 150 minutes) was 71.3%, the “% Reduction in POV” value ([2]; 310 minutes (5.17 h)) was 78.3% and the “POV of treated APS” value ([2]; 310 minutes (5.17 h)) was 3.03 mmol/L. The “% Reduction in POV” value ([2]; 26 hrs) was 83.2%, the “POV of treated APS” value ([2]; 26 hrs) was 2.46 mmol/L and the “% Reduction in POV” value ([2]; 4 days) was 83.8%. The “POV of treated APS” value ([2]; 4 days) was 2.04 mmol/L, the “% Reduction in POV” value [2, 14] was 86.6% and the “POV of treated APS” value [2, 14] was 1.8 mmol/L. The “% Reduction in POV” value ([2]; 8 days) was 87.0%, the “POV of treated APS” value ([2]; 8 days) was 1.77 mmol/L and the “% Reduction in POV” value ([2]; 15 days) was 88.4%. The “POV of treated APS” value ([2]; 15 days) was 1.50 mmol/L, the “% Reduction in POV” value ([2]; 26 days) was 88.7% and the “POV of treated APS” value ([2]; 26 days) was 1.42 mmol/L. For the same compound, the “% Reduction in POV” value [3] was 89.6%, the “POV of Treated Oil” value [3] was 2.49 mmol/L and the “% Reduction in POV” value [4] was 89.7%. The “POV of Treated Oil” value [4] was 2.44 mmol/L, the “% Reduction in POV” value [5] was 100.0% and the “POV of Treated Oil” value [5] was 0.00 mmol/L. For the same compound, the “% Reduction in POV” value [6] was 89.2%, the “POV of Treated Oil” value [6] was 0.38 mmol/L and the “% Reduction in POV” value [7] was 87.5%. The “POV of Treated Oil” value [7] was 0.57 mmol/L, the “% Reduction in POV” value [8] was 95.2% and the “POV of Treated Oil” value [8] was 0.72 mmol/L. For the same compound, the “% Reduction in POV” value [9, 15] was 48.4%, the “POV of Treated Oil” value [9, 15] was 24.8 mmol/L and the “% Reduction in POV” value [9, 16] was 68.4%. The “POV of Treated Oil” value [9, 16] was 15.21 mmol/L, the “% Reduction in POV” value [10] was 76.3% and the “POV of Treated Oil” value [10] was 5.83 mmol/L. The “% Reduction in POV” value [11] was 79.9% and the “POV of Treated Oil” value [11] was 4.28 mmol/L.
In the case of `O=C(O)CC(=O)C(=O)O` [oxaloacetic acid], the “POV of Treated Perfume” value ([12]; 0.0 min, approximately 166 mg (0.83% w/v) in 20 mL model perfume (Example 19)) is reported as 9.44 mmol/L, the “POV of Treated Perfume” value ([12]; 27 min, 0.83% w/v in 20 mL model perfume (Example 19)) is reported as 5.90 mmol/L and the “POV of Treated Perfume” value ([12]; 245 min, 0.83% w/v in 20 mL model perfume (Example 19)) is reported as 1.91 mmol/L. The “reduction in the POV of the formulated perfume (in words)” value ([12]; 24 hours after treatment) was “complete reduction”, the “POV of Treated Perfume” value ([12]; […] (24 hours), 0.83% w/v in 20 mL model perfume (Example 19), indistinguishable from blank) was 0.0 indistinguishable from mmol/L and the “stability in aqueous solutions” value [13] was “unstable in aqueous solutions”.
In the case of `O=C(O)CCC(=O)C(=O)O` [α-ketoglutaric acid, alpha-ketoglutaric acid], the “reduction in the POV of the formulated perfume (in words)” value [12] is reported as “complete reduction” and the “measured pH” value (pH of aqueous solution) is reported as 1.75.
